Test results published in ChEMBL document CHEMBL1933047, “Novel poly(ADP-ribose) polymerase-1 inhibitors” (Bioorg Med Chem Lett, 2012).

Tests used:
[1] = target: Poly [ADP-ribose] polymerase 1 (Rattus norvegicus) (UniProt P27008); assay: Inhibition of PARP1 in rat PC12 cells assessed as NAD+ recovery at 1 uM pre-treated for 1 hr before hydrogen peroxide addition followed by washout and compound treated again for 1 hr relative to control; assay type: cell-based; settings: PC-12
[2] = target: Poly [ADP-ribose] polymerase 1 (Rattus norvegicus) (UniProt P27008); assay: Inhibition of PARP1 in rat PC12 cells assessed as NAD+ recovery at 10 uM pre-treated for 1 hr before hydrogen peroxide addition followed by washout and compound treated again for 1 hr relative to 5H-phenanthridin-6-one; assay type: cell-based; settings: PC-12
[3] = target: Poly [ADP-ribose] polymerase 1 (Rattus norvegicus) (UniProt P27008); assay: Inhibition of PARP1 in rat PC12 cells assessed as NAD+ recovery at 30 uM pre-treated for 1 hr before hydrogen peroxide addition followed by washout and compound treated again for 1 hr relative to 5H-phenanthridin-6-one; assay type: cell-based; settings: PC-12
[4] = target: Poly [ADP-ribose] polymerase 1 (Homo sapiens, UniProt P09874); assay: Inhibition of recombinant human PARP1 by in vitro assay
Chain of Poly [ADP-ribose] polymerase 1 (P09874 whole entry): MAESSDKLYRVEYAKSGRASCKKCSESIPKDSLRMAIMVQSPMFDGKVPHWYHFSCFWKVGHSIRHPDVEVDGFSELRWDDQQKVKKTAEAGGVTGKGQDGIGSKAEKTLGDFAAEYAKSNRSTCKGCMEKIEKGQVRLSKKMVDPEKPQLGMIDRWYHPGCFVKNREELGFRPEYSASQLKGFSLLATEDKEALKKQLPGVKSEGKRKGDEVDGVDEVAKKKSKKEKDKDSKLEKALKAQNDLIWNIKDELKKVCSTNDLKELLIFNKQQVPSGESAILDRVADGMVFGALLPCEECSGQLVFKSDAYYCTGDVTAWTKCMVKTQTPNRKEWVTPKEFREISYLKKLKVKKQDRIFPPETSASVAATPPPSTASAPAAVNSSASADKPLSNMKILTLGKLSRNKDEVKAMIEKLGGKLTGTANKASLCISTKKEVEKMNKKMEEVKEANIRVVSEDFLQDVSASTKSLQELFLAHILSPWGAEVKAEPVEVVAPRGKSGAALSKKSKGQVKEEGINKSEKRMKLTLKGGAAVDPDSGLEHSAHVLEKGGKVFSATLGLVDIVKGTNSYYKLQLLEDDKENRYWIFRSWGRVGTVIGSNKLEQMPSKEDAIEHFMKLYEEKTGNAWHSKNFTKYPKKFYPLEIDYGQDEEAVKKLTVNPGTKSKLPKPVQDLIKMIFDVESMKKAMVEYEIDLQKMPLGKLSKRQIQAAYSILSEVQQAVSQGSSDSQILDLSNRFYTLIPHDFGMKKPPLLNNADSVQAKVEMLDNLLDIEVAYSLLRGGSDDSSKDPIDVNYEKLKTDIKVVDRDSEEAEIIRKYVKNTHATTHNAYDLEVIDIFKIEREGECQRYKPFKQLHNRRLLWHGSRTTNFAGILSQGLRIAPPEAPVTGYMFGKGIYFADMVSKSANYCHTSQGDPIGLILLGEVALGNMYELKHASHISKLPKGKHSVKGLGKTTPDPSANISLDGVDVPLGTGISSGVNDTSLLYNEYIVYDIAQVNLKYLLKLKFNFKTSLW

[5] = target: Poly [ADP-ribose] polymerase 1 (Rattus norvegicus) (UniProt P27008); assay: Inhibition of PARP1 in rat PC12 cells assessed as NAD+ recovery at 3 uM pre-treated for 1 hr before hydrogen peroxide addition followed by washout and compound treated again for 1 hr relative to 5H-phenanthridin-6-one; assay type: cell-based; settings: PC-12

Chain of Poly [ADP-ribose] polymerase 1 (Rattus norvegicus) (P27008 whole entry): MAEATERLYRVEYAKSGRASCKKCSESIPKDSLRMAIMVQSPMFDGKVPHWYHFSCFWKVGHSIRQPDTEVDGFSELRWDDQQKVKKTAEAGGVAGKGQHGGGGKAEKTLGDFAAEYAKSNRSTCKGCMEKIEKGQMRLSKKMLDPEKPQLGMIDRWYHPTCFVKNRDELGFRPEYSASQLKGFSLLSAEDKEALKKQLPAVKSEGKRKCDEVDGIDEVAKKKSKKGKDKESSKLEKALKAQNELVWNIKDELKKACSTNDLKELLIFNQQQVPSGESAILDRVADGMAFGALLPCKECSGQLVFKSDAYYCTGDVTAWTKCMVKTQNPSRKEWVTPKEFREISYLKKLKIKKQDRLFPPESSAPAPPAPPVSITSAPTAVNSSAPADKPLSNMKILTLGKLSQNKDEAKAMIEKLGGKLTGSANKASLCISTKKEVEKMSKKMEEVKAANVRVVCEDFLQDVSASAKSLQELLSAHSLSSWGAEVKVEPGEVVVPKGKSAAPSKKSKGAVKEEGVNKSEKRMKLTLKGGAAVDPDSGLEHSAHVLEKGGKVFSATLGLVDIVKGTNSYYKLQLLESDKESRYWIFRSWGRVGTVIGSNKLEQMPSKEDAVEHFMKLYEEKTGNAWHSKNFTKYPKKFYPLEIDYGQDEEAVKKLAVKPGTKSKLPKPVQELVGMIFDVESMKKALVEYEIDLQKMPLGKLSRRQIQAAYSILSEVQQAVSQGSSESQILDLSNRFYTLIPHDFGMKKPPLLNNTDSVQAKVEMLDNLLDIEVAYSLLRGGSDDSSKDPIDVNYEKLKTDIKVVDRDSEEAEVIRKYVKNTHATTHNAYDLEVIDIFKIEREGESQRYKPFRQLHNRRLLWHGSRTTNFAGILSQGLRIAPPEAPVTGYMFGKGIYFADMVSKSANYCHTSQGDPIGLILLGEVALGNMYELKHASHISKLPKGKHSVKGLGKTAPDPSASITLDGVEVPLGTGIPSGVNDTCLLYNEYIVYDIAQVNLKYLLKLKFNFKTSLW

Structure (SMILES) | inhibition [1] | inhibition [2] | inhibition [3] | IC50 [4] | inhibition [5]
O=C1CCC(c2ccc3[nH]c4c5c(c6c(c4c3c2)C(=O)NC6=O)CCC5)=NN1 | 29% | 49% |  |  | 
NC(=O)[C@@H]1CCCN1C(=O)CCC(=O)c1ccc2[nH]c3c4c(c5c(c3c2c1)C(=O)NC5=O)CCC4 | 11% |  |  |  | 
COC(=O)[C@@H]1CCCN1CC(=O)c1ccc2[nH]c3c4c(c5c(c3c2c1)C(=O)NC5=O)CCC4 | 27% |  | 100% | 12 nM | 
CC(C)(C)OC(=O)NCCNC(=O)CCC(=O)c1ccc2[nH]c3c4c(c5c(c3c2c1)C(=O)NC5=O)CCC4 | 26% |  | 48% |  | 
O=C(CCC(=O)N1CCCC1)c1ccc2[nH]c3c4c(c5c(c3c2c1)C(=O)NC5=O)CCC4 | 32% |  | 92% |  | 
CN(CC(=O)OC(C)(C)C)CC(=O)c1ccc2[nH]c3c4c(c5c(c3c2c1)C(=O)NC5=O)CCC4 | 14% |  | 73% | 19 nM | 
CC(C)(C)OC(=O)[C@@H]1CCCN1C(=O)CCC(=O)c1ccc2[nH]c3c4c(c5c(c3c2c1)C(=O)NC5=O)CCC4 | 39% |  | 98% |  | 
CN(CC(=O)O)CC(=O)c1ccc2[nH]c3c4c(c5c(c3c2c1)C(=O)NC5=O)CCC4 | 14% |  | 45% |  | 
O=C(CN1CCOCC1)c1ccc2[nH]c3c4c(c5c(c3c2c1)C(=O)NC5=O)CCC4 | 38% | 63% |  | 13 nM | 
NCCNC(=O)CCC(=O)c1ccc2[nH]c3c4c(c5c(c3c2c1)C(=O)NC5=O)CCC4 | 14% | 32% |  |  | 
O=C(CN1CCCCC1)c1ccc2[nH]c3c4c(c5c(c3c2c1)C(=O)NC5=O)CCC4 | 14% |  | 50% |  | 
CN1N=C(c2ccc3[nH]c4c5c(c6c(c4c3c2)C(=O)NC6=O)CCC5)CCC1=O | 29% |  |  |  | 
CN1CCN(CC(=O)c2ccc3[nH]c4c5c(c6c(c4c3c2)C(=O)NC6=O)CCC5)CC1 | 7% | 43% |  |  | 
O=C(CCC(=O)N1CCNCC1)c1ccc2[nH]c3c4c(c5c(c3c2c1)C(=O)NC5=O)CCC4 | 10% |  |  |  | 
O=C(Cn1cncn1)c1ccc2[nH]c3c4c(c5c(c3c2c1)C(=O)NC5=O)CCC4 | 25% |  | 55% |  | 
O=C(CCC(=O)N1CCOCC1)c1ccc2[nH]c3c4c(c5c(c3c2c1)C(=O)NC5=O)CCC4 | 38% |  | 65% |  | 
CCN(CC)C(=O)CCC(=O)c1ccc2[nH]c3c4c(c5c(c3c2c1)C(=O)NC5=O)CCC4 | 41% |  | 78% |  | 
CC(C)(C)OC(=O)[C@@H]1CCCN1CC(=O)c1ccc2[nH]c3c4c(c5c(c3c2c1)C(=O)NC5=O)CCC4 | 24% |  | 88% |  | 
O=C(CCC(=O)c1ccc2[nH]c3c4c(c5c(c3c2c1)C(=O)NC5=O)CCC4)NCCO | 24% | 26% |  |  | 
O=C(CCC(=O)N1CCC[C@H]1C(=O)O)c1ccc2[nH]c3c4c(c5c(c3c2c1)C(=O)NC5=O)CCC4 | 4% |  |  | 2 nM | 14%
CC(C)(C)OC(=O)N1CCN(C(=O)CCC(=O)c2ccc3[nH]c4c5c(c6c(c4c3c2)C(=O)NC6=O)CCC5)CC1 | 19% |  | 29% |  | 
O=C(CCC(=O)N1CCCCC1)c1ccc2[nH]c3c4c(c5c(c3c2c1)C(=O)NC5=O)CCC4 | 55% |  | 59% |  | 
O=C(O)CCC(=O)c1ccc2[nH]c3c4c(c5c(c3c2c1)C(=O)NC5=O)CCC4 | 8% |  | 42% |  | 
O=C1NC(=O)c2c1c1c(c3[nH]c4ccccc4c23)CCC1 | 30% |  | 42% |  | 
CCN(CC)CC(=O)c1ccc2[nH]c3c4c(c5c(c3c2c1)C(=O)NC5=O)CCC4 | 10% |  | 70% |  | 
O=C(CN1CCC[C@H]1C(=O)O)c1ccc2[nH]c3c4c(c5c(c3c2c1)C(=O)NC5=O)CCC4 | 14% |  | 43% | 7 nM | 
